Our source for the inhibition and IC50 values is ChEMBL document CHEMBL6153097, “Design, synthesis, and biological evaluation of Flavokavain B derivatives as potent TRF2 inhibitors for the treatment of Osteosarcoma” (Eur J Med Chem, 2025).

The structures appear in SMILES notation. pIC50: −log10 of the molar value. The source made the active and inactive calls. The rule behind the calls is not given here. A value given as a limit tells only on which side of the number the result lay.

Series [1] in a line: (§1) Inhibition of TRF2 expression in human MG-63 cells at 2 uM measured after 48 hrs by Western blot analysis relative to control. It counts as functional. In general terms: In western blotting, separated proteins are transferred to a membrane and probed.
A short description of series [2]: (§2) Inhibition of TRF2 expression in human U2OS cells at 2 uM measured after 48 hrs by Western blot analysis relative to control. It counts as functional.
Series [3] concerns U2OS. The description is as §2. It counts as functional.
Series [4] relates to MG-63. Described as §1. In kind it is functional.
Series [5] concerns MG-63. Briefly: Antiproliferative activity against human MG-63 cells assessed as reduction in cell viability incubated for 48 hrs by MTT assay. It counts as functional, cell-based. The note with it: MG-63, 48 h.
A short description of series [6]: Cytotoxicity against […] MLO-Y4 cells assessed as cell viability incubated for 48 hrs by MTT assay. Particulars: mouse. In kind it is toxicity, cell-based. On the technique in general: Tetrazolium assays rely on reduction of a dye to a coloured formazan, in cell work by metabolically active cells.
The test system of series [7] is U2OS. Briefly: Antiproliferative activity against human U2OS cells assessed as reduction in cell viability incubated for 48 hrs by MTT assay. In kind it is functional, cell-based.

The term inhibition denotes the drop in the measured response relative to a control, in per cent. As for `COc1cc(N2CCOCC2)ccc1C(=O)/C=C/c1cccc(Br)c1`, the inhibition at 2 µM came out at 22.7% in series [1] and 25.1% in series [2].

In turn, `CCOc1ccc(C(=O)/C=C/c2cc(Br)cc(Br)c2)c(OCC)c1` showed an inhibition at 2 µM in series [1] of 17.1%. Further, in the series with U2OS [3], the inhibition entry is “inactive”.

In the case of `COc1cc(OC2CCCOC2)ccc1C(=O)/C=C/c1cccc(Br)c1` (stereo not given), the inhibition at 2 µM came out at 23.7% in series [1] and 31.8% in series [2].

As for `COc1ccc(C(=O)/C=C/c2cc(Br)cc(Br)c2)c(OC)c1`, the inhibition at 2 µM in series [1] is 52.5%; in series [2] it was 22.5%.

Consider `COc1cc(O)ccc1C(=O)/C=C/c1cccc(Br)c1`, for which, in the series with MG-63 [4], the inhibition entry was “inactive”. Also, 2 µM produced 9.3% inhibition in series [2].

`COc1cc(O)c(C(=O)CCc2cccc(Br)c2)c(OC)c1`: the results for the inhibition at 2 µM in series [1] and in series [2] were 32.8% and 34.5%, respectively.

In general, pIC50 refers to the negative decadic logarithm of the IC50, by convention in mol/L. As usually defined, the IC50 is the midpoint of a concentration-inhibition curve. In the case of `COc1ccc(CNC(=O)Nc2ncc([N+](=O)[O-])s2)cc1`, the inhibition at 2 µM in series [1] was determined as 14.6%; in series [2] it was 9.2%. Also, the pIC50 is 4.42 in the series on MG-63 [5] and 4.48 in the series on U2OS [7]. For the same molecule, the half-maximal inhibitory concentration (IC50) at 48 h in series [6] was greater than 100 µM.

As to `COc1cccc(O)c1C(=O)/C=C/c1cccc(Br)c1`, the inhibition at 2 µM in series [1] turned out to be 40.6%; in series [2] it was 35%.

On to `COc1cc(OC2CCCOC2)ccc1C(=O)/C=C/c1cc(Br)cc(Br)c1` (stereo not given), for which the inhibition at 2 µM in series [1] was determined as 32.2%. Besides, the inhibition result in the series with U2OS [3] is “inactive”.

For `CCOC(=O)COc1ccc(C(=O)/C=C/c2cc(Br)cc(Br)c2)c(OC)c1`, the inhibition entry in the series on MG-63 [4] was “inactive”. At 2 µM the inhibition in series [2] was 39.2%.

For `O=C(/C=C/c1cc(Br)cc(Br)c1)c1ccc2c(c1)OCCO2`, the inhibition at 2 µM in series [1] is 37.6%; in series [2] it was 36.7%.

In the case of `COc1ccc(C(=O)/C=C/c2cccc(Br)c2)c(O)c1`, the inhibition at 2 µM in series [1] stood at 44.8%; in series [2], 51.7%. For the same molecule, the pIC50 is 5.15 in the series on MG-63 [5] and 5.10 in the series on U2OS [7]. For the same molecule, in series [6], the concentration for half-maximal inhibition (IC50) at 48 h amounted to 7.93 µM.

`COc1ccc(C(=O)/C=C/c2cccc(Br)c2)c(OC)c1`: the inhibition at 2 µM in series [1] was determined as 29.6%; in series [2], 45.4%.

In the case of `COc1cc(O)c(C(=O)/C=C/c2cc(Br)cc(Br)c2)c(OC)c1`, the results for the inhibition at 2 µM in series [1] and in series [2] were 22.1% and 13.8%, respectively.

Turning to `COc1cc(O)ccc1C(=O)/C=C/c1cc(Br)cc(Br)c1`, the inhibition at 2 µM in series [1] stood at 22.2%; in series [2], 42.1%.

For the molecule `COc1cc(OC)c2c(=O)cc(-c3cccc(Br)c3)oc2c1`, the values for the inhibition at 2 µM in series [1] and in series [2] were 23.8% and 33.7%, respectively.

Regarding `COc1cc(OCC(=O)O)ccc1C(=O)/C=C/c1cccc(Br)c1`, the inhibition result in the series with MG-63 [4] was “inactive”. The molecule further gave an inhibition at 2 µM in series [2] of 52.5%.

Regarding `COc1cc(OCC(=O)O)ccc1C(=O)/C=C/c1cc(Br)cc(Br)c1`, the inhibition at 2 µM in series [1] amounted to 34.8%; in series [2], 52%. Besides, the values for the pIC50 with MG-63 [5] and with U2OS [7] were 4.64 and 4.48, respectively. The IC50 at 48 h in series [6] was greater than 100 µM.

In the case of `COc1cc(O)c(C(=O)/C=C/c2cccc(Br)c2)c(OC)c1`, the inhibition at 2 µM is 37.8% in series [1] and 18.3% in series [2]. Further, the figures for the pIC50 in the series on MG-63 [5] and in the series on U2OS [7] were 5.36 and 5.06, respectively. Moreover, the IC50 at 48 h in series [6] came to 19.6 µM.

Regarding `COc1cc(O)c(C(=O)/C=C/c2cc(Cl)ccn2)c(OC)c1`, the inhibition at 2 µM in series [1] stood at 41.3%; in series [2] it was 32.9%.

Consider `CCOC(=O)COc1ccc(C(=O)/C=C/c2cccc(Br)c2)c(OC)c1`, for which the inhibition entry in the series on MG-63 [4] is “inactive”. Further, in series [2], at 2 µM the inhibition was 37.3%.

Consider `COc1cc(N2CCOCC2)ccc1C(=O)/C=C/c1cc(Br)cc(Br)c1`, for which the results for the inhibition at 2 µM in series [1] and in series [2] were 40.2% and 33.2%, respectively.

`CCOc1ccc(C(=O)/C=C/c2cccc(Br)c2)c(OCC)c1` had an inhibition at 2 µM in series [1] of 36.1%. For the same molecule, in the series with U2OS [3], the inhibition result was “inactive”.

On to `O=C(/C=C/c1cccc(Br)c1)c1ccc2c(c1)OCCO2`, for which the inhibition at 2 µM in series [1] worked out at 48.5%; in series [2], 39.5%. For the same molecule, the pIC50 was 5.17 in the series on MG-63 [5] and 4.88 with U2OS [7]. Besides, in series [6], the half-inhibitory concentration (IC50) at 48 h amounted to 76.5 µM.

As for `COc1cc(OC)c(C(=O)/C=C/c2cc(Br)cc(Br)c2)c(OC)c1`, the inhibition at 2 µM in series [1] came to 31.4%; in series [2], 31.1%.
